Assay results as given in the supplement of paper PMC4862054.
“And” between values parts separate entries of the source, which are not always exact repeats. Identical values can stand only once.

Legend:
Settings in all cases: incubation time: 72 h
CAL-148 [1] = test: normalised viability (% of control), CellTiter-Blue; higher = more viable cells (about 100 = DMSO control)
Method: (§1)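 DSRT, CellTiter-Blue viability, 72 h incubation. Signal is normalised to DMSO and benzethonium chloride controls. Value is the normalised response at dose 7.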

CAL-51 [2] = test: as above
Method: as §1

CAL-85-1 [3] = test: as above
Method: as §1

DU-4475 [4] = test: as above
Method: as §1

HDQ-P1 [5] = test: as above
Method: as §1

MDA-MB-453 [6] = test: as above
Method: as §1

CAL-148 [7] = test: as above; remark: listed apart in the source
Method: (§2)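 DSRT, CellTiter-Blue viability, 72 h incubation. Signal is normalised to DMSO and benzethonium chloride controls. Value is the normalised response at dose 9.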

CAL-51 [8] = test: as above; remark: listed apart in the source
Method: as §2

CAL-85-1 [9] = test: as above; remark: listed apart in the source
Method: as §2

DU-4475 [10] = test: as above; remark: listed apart in the source
Method: as §2

HDQ-P1 [11] = test: as above; remark: listed apart in the source
Method: as §2

MDA-MB-453 [12] = test: as above; remark: listed apart in the source
Method: as §2

CAL-148 [13] = test: normalised response (% of control), CellTiter-Glo; higher = more viable cells (100 = DMSO, 0 = benzethonium chloride kill control)
Method: (§3)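 DSRT, 72 h incubation, CellTox Green / CellTiter-Glo readout. Signal is normalised to DMSO and benzethonium chloride controls. Value is the normalised response at the highest dose.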

CAL-51 [14] = test: as above
Method: as §3

HCC1599 = test: as above
Method: as §3

MDA-MB-231 = test: as above
Method: as §3

Row | SMILES | normalised viability (CAL-148 [1]) | normalised viability (CAL-51 [2]) | normalised viability (CAL-85-1 [3]) | normalised viability (DU-4475 [4]) | normalised viability (HDQ-P1 [5]) | normalised viability (MDA-MB-453 [6]) | normalised viability (CAL-148 [7]) | normalised viability (CAL-51 [8]) | normalised viability (CAL-85-1 [9]) | normalised viability (DU-4475 [10]) | normalised viability (HDQ-P1 [11]) | normalised viability (MDA-MB-453 [12]) | normalised response (CAL-148 [13]) [%] | normalised response (CAL-51 [14]) [%] | normalised response (HCC1599) [%] | normalised response (MDA-MB-231) [%]
1 | N#Cc1ccc(COC[C@H]2O[C@@H](n3c(NCc4ccc(Cl)c(Cl)c4)nc4c(N)ncnc43)[C@H](O)[C@@H]2O)cc1 (1000 nM) | 101% | 105% | 88.9% | 99.8% | 81.2% | 93.2% |  |  |  |  |  |  |  |  |  | 
2 | N#Cc1ccc(COC[C@H]2O[C@@H](n3c(NCc4ccc(Cl)c(Cl)c4)nc4c(N)ncnc43)[C@H](O)[C@@H]2O)cc1 (10000 nM) |  |  |  |  |  |  | 89% | 89.9% | 92% | 76.9% | 88.4% | 50.3% | 83.7 | 88 | 65.7 | 74.5
3 | COc1cc(OC2CCN(C)CC2)ccc1Nc1ncc2c(n1)n(C1CCCC1)c(=O)n2C [AZ 3146] (1000 nM) | 108% | 75.2% | 108% | 99% | 89.4% | 90.6% |  |  |  |  |  |  |  |  |  | 
4 | COc1cc(OC2CCN(C)CC2)ccc1Nc1ncc2c(n1)n(C1CCCC1)c(=O)n2C [AZ 3146] (10000 nM) |  |  |  |  |  |  | 48.4% | 22% | 72.4% | 54.6% | 80.1% | 37.4% | 58.7 | 48.9 | 37.8 | 62.3
5 | CN(C)c1nc(N(C)C)nc(N(C)C)n1 [Altretamine] (1000 nM) | 105% | 103% | 96.9% | 113% | 101% | 91.6% |  |  |  |  |  |  |  |  |  | 
6 | CN(C)c1nc(N(C)C)nc(N(C)C)n1 [Altretamine] (10000 nM) |  |  |  |  |  |  | 63.4% | 72.6% | 46.5% | 94.7% | 111% | 18.7% | 106 | 109 | 112 | 102
7 | O=C(/C=C/c1cccc(S(=O)(=O)Nc2ccccc2)c1)NO [Belinostat] (1000 nM) | 24.3% | 59.9% | 42.8% | 33.3% | 49.5% | 4.06% |  |  |  |  |  |  |  |  |  | 
8 | O=C(/C=C/c1cccc(S(=O)(=O)Nc2ccccc2)c1)NO [Belinostat] (10000 nM) |  |  |  |  |  |  | 0.35% | 3.47% | 7.19% | 4.25% | 23% | 1.48% | -0.03 | 44.5 | 5.36 | 2.16
9 | O=P1(N(CCCl)CCCl)NCCCO1 (configuration not stated) [Cyclophosphamide] (4000 nM) | 121% | 99% | 101% | 97% | 99.2% | 105% |  |  |  |  |  |  |  |  |  | 
10 | O=P1(N(CCCl)CCCl)NCCCO1 (configuration not stated) [Cyclophosphamide] (40000 nM) |  |  |  |  |  |  | 110% | 101% | 98.4% | 94.4% | 120% | 117% | 101 | 131 | 92.9 | 99.9
11 | C=C1C[C@@H]2[C@H](CC[C@]3(C)C(=O)CC[C@@H]23)[C@@]2(C)C=CC(=O)C=C12 [Exemestane] (1000 nM) | 120% | 96.5% | 91.7% | 85.8% | 102% | 90.2% |  |  |  |  |  |  |  |  |  | 
12 | C=C1C[C@@H]2[C@H](CC[C@]3(C)C(=O)CC[C@@H]23)[C@@]2(C)C=CC(=O)C=C12 [Exemestane] (10000 nM) |  |  |  |  |  |  | 104% | 105% | 99.1% | 88.9% | 103% | 81% | 112 | 81.7 | 107 | 104
13 | COc1cc2ncnc(Nc3ccc(F)c(Cl)c3)c2cc1OCCCN1CCOCC1 [Gefitinib] (1000 nM) | 79.6% and 83.3% | 107% and 98.3% | 54.4% and 47.4% | 101% and 86.2% | 76.2% and 90.4% | 82.9% and 76.9% |  |  |  |  |  |  |  |  |  | 
14 | COc1cc2ncnc(Nc3ccc(F)c(Cl)c3)c2cc1OCCCN1CCOCC1 [Gefitinib] (10000 nM) |  |  |  |  |  |  | 69.2% and 65% | 82.1% and 81.6% | 45% and 40.7% | 102% and 105% | 59.6% and 51.1% | 29.8% and 23% | 69.7 | 100 | 81.9 | 70.5
15 | O=C(Nc1ccncc1)C(=O)c1cn(Cc2ccc(Cl)cc2)c2ccccc12 [Indibulin] (1000 nM) | 118% | 54.2% | 53.8% | 81.8% | 61.3% | 38.5% |  |  |  |  |  |  |  |  |  | 
16 | O=C(Nc1ccncc1)C(=O)c1cn(Cc2ccc(Cl)cc2)c2ccccc12 [Indibulin] (10000 nM) |  |  |  |  |  |  | 43.7% | 24.4% | 38.9% | 21.4% | 55.2% | 36% | 103 | 18.4 | 73.1 | 53.8
17 | NC(=O)c1ccc(I)c([N+](=O)[O-])c1 [Iniparib] (1000 nM) | 87.9% | 95.3% | 83.3% | 108% | 99.6% | 89.2% |  |  |  |  |  |  |  |  |  | 

Row | SMILES | normalised viability (CAL-148 [1]) | normalised viability (CAL-51 [2]) | normalised viability (CAL-85-1 [3]) | normalised viability (DU-4475 [4]) | normalised viability (HDQ-P1 [5]) | normalised viability (MDA-MB-453 [6]) | normalised viability (CAL-148 [7]) | normalised viability (CAL-51 [8]) | normalised viability (CAL-85-1 [9]) | normalised viability (DU-4475 [10]) | normalised viability (HDQ-P1 [11]) | normalised viability (MDA-MB-453 [12]) | normalised response (CAL-148 [13]) [%] | normalised response (CAL-51 [14]) [%] | normalised response (HCC1599) [%] | normalised response (MDA-MB-231) [%]
18 | NC(=O)c1ccc(I)c([N+](=O)[O-])c1 [Iniparib] (10000 nM) |  |  |  |  |  |  | 108% | 91.6% | 98% | 94% | 106% | 84.8% | 88.8 | 84.7 | 88 | 93.9
19 | CCc1c2c(nc3ccc(OC(=O)N4CCC(N5CCCCC5)CC4)cc13)-c1cc3c(c(=O)n1C2)COC(=O)[C@]3(O)CC [Irinotecan] (1000 nM) | 61.5% and 70.9% | 80.6% and 99.8% | 88.7% and 94.5% | 73.1% and 78.7% | 98.8% and 93.5% | 76% and 99.8% |  |  |  |  |  |  |  |  |  | 
20 | CCc1c2c(nc3ccc(OC(=O)N4CCC(N5CCCCC5)CC4)cc13)-c1cc3c(c(=O)n1C2)COC(=O)[C@]3(O)CC [Irinotecan] (10000 nM) |  |  |  |  |  |  |  | 8.48% and 31.6% |  | 4.69% and 18.8% | 64% and 80% |  | 26.4 | 34.8 | 29.8 | 84.8
21 | Oc1ccc2c(c1)CC[C@H](c1ccccc1)[C@@H]2c1ccc(OCCN2CCCC2)cc1 [Lasofoxifene] (100 nM) | 107% | 99.7% | 87.2% | 106% | 109% | 80.7% |  |  |  |  |  |  |  |  |  | 
22 | Oc1ccc2c(c1)CC[C@H](c1ccccc1)[C@@H]2c1ccc(OCCN2CCCC2)cc1 [Lasofoxifene] (1000 nM) |  |  |  |  |  |  | 107% | 90% | 81.8% | 97.8% | 125% | 107% | 122 | 78.9 | 99.2 | 102
23 | Cc1ccc(NC(=O)c2ccc(CN3CCN(C)CC3)cc2)cc1Nc1nc(-c2cccnc2)cs1 [Masitinib] (1000 nM) | 87.1% | 104% | 94.3% | 120% | 105% | 89.6% |  |  |  |  |  |  |  |  |  | 
24 | Cc1ccc(NC(=O)c2ccc(CN3CCN(C)CC3)cc2)cc1Nc1nc(-c2cccnc2)cs1 [Masitinib] (10000 nM) |  |  |  |  |  |  | 74.5% | 80.4% | 70.4% | 119% | 67.6% | 24.4% | 97.7 | 59.1 | 49.6 | 51.5
25 | O=C(Nc1cccnc1)N1CCC(Cc2cccc(Oc3ccc(C(F)(F)F)cn3)c2)CC1 [PF-3845] (1000 nM) | 101% | 101% | 83% | 81.3% | 144% | 86% |  |  |  |  |  |  |  |  |  | 
26 | Cc1[nH]c2ccccc2c1CCNCc1ccc(/C=C/C(=O)NO)cc1 [Panobinostat] (100 nM) | 5.94% | 25.6% | 15.6% | 3.38% | 32.3% | 2.59% |  |  |  |  |  |  |  |  |  | 
27 | COCC1(CO)C(=O)C2CCN1CC2 (configuration not stated) [Prima-1 Met] (1000 nM) | 102% | 102% | 90.9% | 108% | 106% | 80.5% |  |  |  |  |  |  |  |  |  | 
28 | CNC(=O)c1cc(Oc2ccc(NC(=O)Nc3ccc(Cl)c(C(F)(F)F)c3)c(F)c2)ccn1 [Regorafenib] (1000 nM) | 107% | 90.5% | 78.6% | 97.6% | 98.3% | 87% |  |  |  |  |  |  |  |  |  | 
29 | CO[C@H]1C[C@@H]2CC[C@@H](C)[C@@](O)(O2)C(=O)C(=O)N2CCCC[C@H]2C(=O)O[C@H]([C@H](C)C[C@@H]2CC[C@@H](OP(C)(C)=O)[C@H](OC)C2)CC(=O)[C@H](C)/C=C(\C)[C@@H](O)[C@@H](OC)C(=O)[C@H](C)C[C@H](C)/C=C/C=C/C=C/1C [Ridaforolimus] (100 nM) | 37% | 39.4% | 52.5% | 53.7% | 76.6% | 24.1% |  |  |  |  |  |  | 58.8 | 62 | 108 | 88.4
30 | c1ccc2c(CCNc3ccc(Nc4ccncc4)cc3)c[nH]c2c1 [Serdemetan] (1000 nM) | 77.3% | 102% | 75.9% | 104% | 96.4% | 85.2% |  |  |  |  |  |  |  |  |  | 
31 | CN(C)CCOc1ccc(/C(=C(/CCCl)c2ccccc2)c2ccccc2)cc1 [Toremifene] (1000 nM) | 108% | 100% | 99.7% | 97.4% | 124% | 106% |  |  |  |  |  |  |  |  |  | 
32 | CC(C)C[C@@H](C(=O)N[C@H](C(=O)OC1CCCC1)c1ccccc1)[C@H](O)C(=O)NO [Tosedostat] (1000 nM) | 67.8% | 77.1% | 77% | 51% | 76.3% | 41.2% |  |  |  |  |  |  |  |  |  | 
33 | COc1cc2/c(=N/c3ccc(Br)cc3F)nc[nH]c2cc1OCC1CCN(C)CC1 [Vandetanib] (1000 nM) | 89.2% | 82.4% | 71% | 105% | 48.7% | 87.9% |  |  |  |  |  |  | 78.9 | 99.1 | 76.2 | 79.1
34 | COCC[n+]1c2c(n(Cc3cnccn3)c1C)C(=O)c1ccccc1C2=O [YM155] (1000 nM) | 2.29% | 1.61% | 2.27% | 1.98% | 0.25% | 7.19% |  |  |  |  |  |  |  |  |  | 
